# Reference: patent US10154989B2, “Methods of managing graft versus host disease (GvHD) using indole carboxyaldehydes or derivatives thereof” (Emory University, priority 2015, dated 2018)
# “Also recorded” adds a separate entry of the source.
# What was measured:
# Format in all cases: in vivo
# [1] = test system: radiation-induced enteritis in mice; test: Radiation enteritis: 12Gy TBI without BM transplant
# Description: Mice were subjected to 12Gy TBI without BM transplant, a lethal model in which most animals succumb to radiation-induced enteritis by about 7 days post-irradiation (p.i.), as opposed to hematopoietic failure at about 14 days p.i. […] (FIG. 5C). Thus, ICA reduced the death rate of both colonic and hematopoietic stem cells. […] While reduced intestinal damage and improved repair likely accounts at least in part for initial improvement in GvHD animals, additional effects on immune tolerance were also evident, but only over very long periods of administration (>3 months).
# [2] = test system: GvHD in B10.BR mice administered TCDBM+T cells; test: GvHD model: 11Gy TBI B10.BR mice given TCDBM plus 3×10^6 allo-MHC mismatched C57Bl/6 T cells
# Experimental: B6,B10.BR allo MHC mismatched transplants, administering 3×10^6 MHC mismatched donor T cells following myeloablative irradiation with 11Gy that injures gut epithelia. […] ICA (150 mg/kg/d) p.o. QD.
# The gut microbiota contribute to GvHD, yet some Lactobacillus species, which produce ICA and related molecules, mitigate GvHD. Thus, depending on the composition of the microbiota, molecules derived from it might protect from GvHD or exacerbate it. ICA might limit GvHD, by regulating barrier integrity. A myeloablative dose of total body irradiation (TBI) (11Gy) was administered to B10.BR mice, an established murine model of GvHD, in which followed by transplantation of T cell depleted bone marrow (TCDBM) plus/or minus 3×10^6 allo-MHC mismatched T cells all from donor C57Bl/6 mice. Mice administered TCDBM+T cells consistently developed GvHD, increased apoptosis and crypt hyperplasia in the colon (e.g. FIG. 4C), bacterial dissemination to mesenteric lymph nodes (FIG. 4B), increased Th17 responses, and 90% lethality by 30 days (FIG. 4A). […] Thus, ICA protects against GvHD.
# C. rodentium = test: Infectious colitis: ICA given to mice infected with C. rodentium
# Experimental: Indoles were assessed in models of epithelial barrier integrity and immune regulation in mammals. Pathogenic E. coli (EPEC and EHEC) and the related mouse pathogen C. rodentium encode virulence factors and a Type III secretion system through the LEE pathogenicity island, and cause diarrhea and colitis. In vivo, C. rodentium causes infectious colitis, characterized by neutrophil and T cell infiltration into the lamina propria, transient increases in IL-22, epithelial barrier breakdown, crypt hyperplasia (an indicator of repair), and dissemination of bacteria throughout the body. […] Thus, indole derivatives, produced via commensal E. coli TnaA, mitigate pathogen infection. ICA was administered to mice that were infected with C. rodentium.
# [3] = test system: GvHD in B10.BR (H2k) mice transplanted with TCD-BM+T cells; test: GvHD model: lethally irradiated B10.BR mice given TCD-BM plus 2×10^6 B6 T cells, daily ICA gavage
# Experimental: Lethally irradiated B10.BR (H2k) mice were transplanted with 3×10^6 T cell depleted bone marrow cells (TCD-BM) alone or the combination of TCD-BM plus 2×10^6 purified T cells from B6 (H2b) donor mice. Mice received daily gavage with 100 mg/kg or 150 mg/kg ICA or vehicle through day 38 post-transplant. Survival and clinical manifestations of GvHD were monitored through day 62. Histopathology of the gut, cytokines in serum and colon homogenates, intracellular cytokine staining of donor T-cells and bacterial counts in mesenteric lymph nodes (using blood agar plates) were measured in a separate cohort of experimental mice euthanized on day 20. Additionally, a secondary transplant was conducted to test the allo-proliferative capacity (in vivo CFSE dilution assay) and GvHD activity of T-cells from spleens of mice in the TCD-BM+T cells+150 mg/kg ICA group that survived to day 62, compared to B6 T cells, in combination with fresh B6 TCD-BM, in B10.BR recipients.
# They were fed vehicle, 100 mg/kg/day of ICA, or 150 mg/kg/day of ICA by oral gavage. Only 7% of the recipients of TCD-BM+T cells treated with vehicle only survived to day 46.
# [4] = mice infected with C. rodentium
# [5] = ICA-treated recipients of TCD-BM+T cells
compound,measurement,setting,value
"O=Cc1c[nH]c2ccccc12 [ICA, indole-3-carboxaldehyde]",mean survival time,"[1]; 12Gy TBI without BM transplant, extended from 7 days",12 days p.i.
same,apoptotic cells in the colon,[1]; at 6 hr p.i.,fewer apoptotic cells; also recorded: decrease
same,hematopoietic cells in the marrow,[1]; at 4 days p.i.,increased numbers; also recorded: enhances survival of hematopoietic progenitors
same,"survival from radiation, in words",[1]; no BM transplant,promotes survival
same,bacterial dissemination to mesenteric lymph nodes,[2]; ICA p.o. 150 mg/kg QD,abrogated
same,colon damage,[2]; ICA p.o. 150 mg/kg QD,abrogated
same,effect on liver GvHD,[2]; ICA p.o. 150 mg/kg QD,without effect
same,animals in which weight loss and death were prevented,"[2]; ICA p.o. 150 mg/kg QD, animals receiving TCDBM+T cells",90%
same,tolerance of donor C57Bl/6 T cells to B10.BR antigens,[2]; after long-term treatment (50 days),irreversibly and permanently tolerant
same,response of donor T cells to allo-antigens other than B10.BR or C57Bl/6,"[2]; after long-term treatment (50 days), upon secondary transplantation",remain responsive
same,survival of mice with transplanted allogeneic T cells,[2]; untreated animals all succumbed to GvHD,90%
same,survival,"C. rodentium; ICA 150 mg/kg/d p.o., C. rodentium infected MyD88−/− mice, compared to vehicle",enhances survival
same,barrier integrity,C. rodentium; [4],maintained barrier integrity
same,survival,C. rodentium; [4],prolonged survival
same,survival of recipients of TCD-BM+T cells,"[3]; 100 mg/kg/day ICA oral gavage, at day 52, p=0.009",20%
same,survival of recipients of TCD-BM+T cells,"[3]; 150 mg/kg/day ICA oral gavage, p<0.001",83%
same,levels of inflammatory cytokines,[3]; [5],decreased levels of inflammatory cytokines
same,thymopoiesis,[3]; [5],improved thymopoiesis
same,GvHD activity of recovered T cells in secondary B10.BR recipients,[3]; T cells recovered at day 62 from ICA-treated recipients,lack of GvHD activity
same,proliferation of CFSE-stained T cells in secondary transplant,"[3]; T cells recovered at day 62 from ICA-treated recipients, secondary B10.BR recipients",reduced proliferation
same,"GvHD mortality / survival, in words","[3]; daily doses of ICA, 100 or 150 mg/kg/day",improved survival in a dose-dependent manner; also recorded: reduces GvHD mortality in a dose-dependent manner
same,engraftment by allogeneic donor bone marrow,[3]; fed to transplant recipients for the first few weeks after transplant,allows normal engraftment
same,tolerability / toxicity,[3]; recipients of BM grafts without GvHD-causing T-cells,well tolerated without serious toxicity
same,"GvHD pathology, histological analysis of colonic tissue",[3]; vs vehicle-treated control animals,marked reduction of GvHD pathology
same,bacterial colonization of mesenteric lymph nodes (MLN),"[3]; vs vehicle-treated control animals, p<0.01",decreased bacterial colonization; also recorded: reduce bacterial colonization
